Assay results: PubChem BioAssay (NCI)
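Following 48 hours of exposure in 96-well plates, responses at five concentrations were used to interpolate endpoints linearly. TGI denotes the concentration required for complete inhibition of growth.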

Tests used:
Assay in all cases: DTP human tumour cell line panel, 48 h
[1] = system: U251 CNS
[2] = system: T-47D breast
[3] = system: MALME-3M melanoma
[4] = system: RXF 393 renal
[5] = system: CAKI-1 renal
[6] = system: MDA-MB-231 breast

Structure (SMILES)	TGI [1] [µM]	TGI [2] [µM]	TGI [3] [µM]	TGI [4] [µM]	TGI [5] [µM]	TGI [6] [µM]
CC(CSC(=N)N)C(N)=O (stereo unspecified)	> 100	> 100	> 100	> 100	> 100	> 100
Clc1ccc(Cl)c(N=Nc2cc3c4c(c2)CCN4CCC3)c1	> 10	> 10	> 10	> 10	> 10	> 10
COC(=O)c1ccc2c(c1)CC1(C2)Cc2cc3c(cc2C1)CCC3	> 100	> 100	> 100	> 100	> 100	> 100
CCCCOCCOCCOC1=CC(=O)c2c(O)ccc(O)c2C1=O	3.29	6.16	1.49	3.63	3.76	3.86
CCOC(=O)c1c[nH]c(C(=O)OCC)c1-c1cccn1-c1ccccc1	48	> 100	56.4	43	67.7	> 100
COc1ccc(C(O)/C(=N/N)c2nc3ccc(Cl)cc3[nH]c2=O)cc1 (stereo unspecified)	> 100	> 100	> 100	> 100	> 100	> 100
CC(=O)CCCCn1c(=O)c2c(nc(Br)n2C)n(C)c1=O	> 100	> 100	> 100	> 100	3.87	> 100
Nc1nc(Nc2ccc(Cl)c(Cl)c2)nc2nc[nH]c12	36.5	25.1	32.5	20.1	25.1	31.3
O[C@]12C=C(c3nccc4c3[nH]c3ccccc34)[C@@H]3CCN(CCCC/C=C\CC1)C[C@@]31CC3/C=C\CCCCN3[C@H]12 (stereo partly specified)	1.79	4.67	1.71	–	6.17	1.84
FC(F)(F)c1ccccc1C1SCC2=Nc3ccccc3CN21 (stereo unspecified)	> 100	38.4	–	22	> 100	> 100
FC(F)(F)c1ccc(C2ON=C(c3ccccc3)N2C23CC4CC(CC(C4)C2)C3)cc1 (stereo unspecified)	> 10	> 10	> 10	> 10	> 10	> 10
CC(C)=CCCC(C)(OC1OC(CO)C(O)C(O)C1O)C1CCC2(C)C1C(O)CC1C3(C)CCC(O)C(C)(C)C3C(OC3OC(CO)C(O)C(O)C3OC3OC(C)C(O)C(O)C3O)CC12C (stereo unspecified) (tested in a mixture with another compound)	> 75	> 75	–	–	> 75	> 75
O=C(CNc1ccccn1)Nn1cnc2ccc(S(=O)(=O)Nc3ccccn3)cc2c1=O	> 100	–	> 100	–	> 100	> 100
C[C@@H](CC(O)C(O)C(C)(C)O)C1CCC23CC12CCC1[C@@]2(C)CCC(O)C(C)(C)C2CC(OC2OC(CO)C(O)C(O)C2O)[C@]13C (stereo partly specified)	> 10	> 10	> 10	> 10	> 10	> 10
O=C1Oc2ccccc2C1C/C(=N\Nc1ccccc1)c1ccccc1O (stereo unspecified)	> 100	81.8	> 100	> 100	> 100	> 100
CNC(=O)c1n[nH]n(C2CCCCC2)c1=S	> 100	> 100	> 100	> 100	> 100	> 100

Structure (SMILES)	TGI [1] [µM]	TGI [2] [µM]	TGI [3] [µM]	TGI [4] [µM]	TGI [5] [µM]	TGI [6] [µM]
CCc1n[nH]c(=O)n1CCCCCCCCn1c(CC)n[nH]c1=O	> 100	> 100	> 100	> 100	> 100	> 100
O=C(O)c1nc2ccccc2nc1Nc1ccc(Cl)c(Cl)c1	> 100	72.1	> 100	69.3	77.9	90
Cc1ccc(S(=O)c2cccs2)cc1 (stereo unspecified)	> 100	> 100	> 100	> 100	–	–
CN(C)c1ccc(/C=C/C(=O)c2ccc(O)cc2)cc1	> 42	57.6	51	> 100	> 100	> 91.5
COc1ccc(C2c3cc4c(cc3OC(NNc3ccccc3)C2C)OCO4)cc1 (stereo unspecified)	> 100	> 100	52.9	54.3	> 100	> 100
O=c1[nH]nc(Cc2ccccc2)n1/N=C/c1cccs1	> 100	> 100	> 100	> 100	> 100	> 100
Clc1ccc(Nc2nnc(CNc3ccc(-c4nnc(Nc5ccc(Cl)cc5)s4)cc3)s2)cc1	> 100	–	> 100	> 100	> 100	> 100
CC(C)C1CNC(=O)C2(C=NC(C(C)C)CNC(=O)C3(C=N1)CCCO3)CCCO2 (stereo unspecified)	> 10	> 10	> 10	> 10	> 10	> 10
[N-]=[N+]=Nc1ccccc1-c1ccccc1[N+](=O)[O-]	> 100	> 100	> 100	> 100	> 100	> 100
CCOC(=O)C(NC(=O)OCc1ccccc1)C(=O)O (stereo unspecified)	> 100	> 100	> 100	> 100	> 100	> 100
CCC(NC(C)c1ccccc1)C(=O)c1ccc(OCc2ccccc2)c(OCc2ccccc2)c1 (stereo unspecified)	> 100	> 100	> 100	> 100	> 100	> 100
CC(=O)OI1NC(=O)c2ccccc21	> 100	–	> 100	–	–	> 100
CSc1ncnc2c1cnn2Cc1cn(COCCO)nn1	> 100	> 100	> 100	> 100	–	> 100
C=C1CC(C)(COc2ccc3c(C)c(Cl)c(=O)oc3c2)OC1=O (stereo unspecified)	21	–	7.63	–	6.58	12.6
CSc1nc(=S)[nH]c2c1c(C)nn2-c1ccccc1	> 100	62.5	41.5	94.1	40.3	64.9
